Reference: US20070078125A1, “Arylamine mch r1 antagonists” (GLAXO GROUP LIMITED, priority 2003, published 2007)

How the values were obtained:
[1] = molecular target: T1, hERG potassium channel (Homo sapiens, UniProt Q12809); test: hERG whole cell patch clamp, tail current inhibition in HEK-293 cells; type: cell-based; settings: tail current at −40 mV, room temperature; for inhibition at 3 µM: human, pH 7.4, 3 μM, read-out: hERG Inhibition, % inhib. @ 3 μM
T1 construct: expressed in transfected cells; host or cells: HEK-293 cells, BacMam viral expression system
Experimental: The comparison was carried out as follows. The hERG potassium channels were transiently expressed in HEK-293 cells using the Bacmam viral expression system (Kost et al, 2000: Pfohl et al, 2001). The HEK-293 cells were maintained in cell media comprised of D-MEM/F12, 10% fetal bovine serum, penicillin G sodium 100 units/mL, and streptomycin sulfate 100 μg/mL. Cells were grown to confluency in flasks and were rinsed once with PBS prior to passage. The flasks were incubated with VERSENE (EDTA) 1:5000 for 5 minutes at 37° C. to detach the cells from the flasks. Cells used in electrophysiology experiments were plated on glass coverslips and transfected 24 to 72 hours prior to use.
hERG channels were studied using the whole cell mode of the patch clamp technique (Hamill et al., 1981). The pipette solution contained 145 mM K+Aspartate, 11 mM EGTA, 5 mM NaCl, 5 mM MgATP, 5 mM HEPES, pH 7.4, and the bath solution contained 145 mM NaCl, 4 mM KCl, 2 mM CaCl2, 1 mM MgCl2, 10 mM HEPES, 10 mM d-glucose pH 7.4. To measure drug effects, the cells were held at −80 mV, then stepped to +20 mV for 400 ms followed by a second pulse to −40 mV so that the outward tail current characteristic of hERG could be measured. […] This pulse protocol was repeated at ten-second intervals during the superfusion of the test article diluted in the bath solution. The inhibition of hERG was determined by measuring the peak amplitude of the tail currents at −40 mV before and after compound application. The half-maximal inhibitory concentration (IC50) was determined from a curve fit of Hill equation to the data points. […] All experiments were conducted at room temperature (approximately 25° C.).

[2] = molecular target: T2, MCH R1 (Homo sapiens, UniProt Q99705); test: functional antagonist assay of MCH R1 (elkgal4-luc+ reporter gene, CHO cells, inhibition of MCH EC80 response); type: cell-based; settings: MCH1R-elkgal4-luc+ CHO cells, read-out: MCH R1 pIC50 (converted)
T2 construct: expressed in transfected cells; host or cells: CHO cells stably expressing elkgal4-luc+ reporter gene (CHO-K1, ATCC)
Source text: The activity of the compounds used in this invention may be assessed in a functional assay of MCH R1 as follows:
Black, 96-well, tissue culture-treated plates (#3904) were obtained from Corning Costar, (Cambridge, Mass.), LucPlus™ Luciferase Reporter Gene Assay Kit (# 6016969) was from Packard (Meriden, Conn.), plate seals (#097-05-00006) were from Beckman/Sagian (Fullerton, Calif.). DMEM/F12 medium (#11039-021), fetal bovine serum (# 16140-071), L-glutamine (#25030-081), 0.05% trypsin (# 25300-054), G418 (#10131-035) and dPBS (#4190-144) were obtained from Gibco BRL (Gaithersburg, Md.). […]
CHO cells, stably expressing an elkgal4-luc^+ reporter gene (host) were transfected by electroporation with the human melanin-concentrating hormone one receptor. […] Plates were sealed and subjected to dark adaptation at room temperature for 10 minutes before luciferase activity was quantitated on a TopCount™ microplate scintillation counter (Packard) using 3 seconds/well count time. The ability of the antagonist to inhibit the MCH EC80 response was quantified by non-linear regression analysis using a curve-fitting program based in Microsoft ExCel. Specificity of the MCH R1 response was determined using the same protocol by measuring the ability of said antagonists to inhibit an EC80 thrombin response (endogenous) in the host cells.

T1 sequence (Q12809 whole entry): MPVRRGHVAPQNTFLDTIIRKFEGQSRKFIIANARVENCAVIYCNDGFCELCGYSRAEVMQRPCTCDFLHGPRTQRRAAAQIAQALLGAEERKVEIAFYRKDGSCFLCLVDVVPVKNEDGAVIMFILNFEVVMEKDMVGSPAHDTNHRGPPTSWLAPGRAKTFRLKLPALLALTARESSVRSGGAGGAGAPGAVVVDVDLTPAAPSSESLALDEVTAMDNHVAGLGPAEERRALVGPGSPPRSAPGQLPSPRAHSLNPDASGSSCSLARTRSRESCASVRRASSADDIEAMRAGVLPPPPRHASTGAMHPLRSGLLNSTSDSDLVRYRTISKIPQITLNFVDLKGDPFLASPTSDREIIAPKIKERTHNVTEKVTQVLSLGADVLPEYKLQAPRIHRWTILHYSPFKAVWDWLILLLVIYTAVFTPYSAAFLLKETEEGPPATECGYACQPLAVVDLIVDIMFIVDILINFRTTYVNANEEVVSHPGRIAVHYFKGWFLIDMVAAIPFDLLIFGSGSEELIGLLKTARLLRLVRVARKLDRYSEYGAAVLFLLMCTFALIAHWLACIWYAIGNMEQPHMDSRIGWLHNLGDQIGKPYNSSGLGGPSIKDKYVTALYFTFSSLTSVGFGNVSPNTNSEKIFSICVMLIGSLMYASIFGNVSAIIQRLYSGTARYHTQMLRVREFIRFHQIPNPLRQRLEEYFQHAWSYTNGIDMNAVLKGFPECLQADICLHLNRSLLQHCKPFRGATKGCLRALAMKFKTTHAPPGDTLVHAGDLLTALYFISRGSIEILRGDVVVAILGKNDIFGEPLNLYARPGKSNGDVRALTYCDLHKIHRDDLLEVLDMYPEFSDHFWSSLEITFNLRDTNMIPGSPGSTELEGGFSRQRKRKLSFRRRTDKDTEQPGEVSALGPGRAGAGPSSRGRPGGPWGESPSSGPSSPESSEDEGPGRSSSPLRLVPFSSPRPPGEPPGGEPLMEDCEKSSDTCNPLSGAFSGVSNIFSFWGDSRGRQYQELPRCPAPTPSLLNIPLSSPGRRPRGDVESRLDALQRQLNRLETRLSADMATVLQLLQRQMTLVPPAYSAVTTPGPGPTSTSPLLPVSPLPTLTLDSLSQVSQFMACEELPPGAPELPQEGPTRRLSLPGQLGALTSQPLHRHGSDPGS
T2 sequence (Q99705 whole entry, the tested form may be a part): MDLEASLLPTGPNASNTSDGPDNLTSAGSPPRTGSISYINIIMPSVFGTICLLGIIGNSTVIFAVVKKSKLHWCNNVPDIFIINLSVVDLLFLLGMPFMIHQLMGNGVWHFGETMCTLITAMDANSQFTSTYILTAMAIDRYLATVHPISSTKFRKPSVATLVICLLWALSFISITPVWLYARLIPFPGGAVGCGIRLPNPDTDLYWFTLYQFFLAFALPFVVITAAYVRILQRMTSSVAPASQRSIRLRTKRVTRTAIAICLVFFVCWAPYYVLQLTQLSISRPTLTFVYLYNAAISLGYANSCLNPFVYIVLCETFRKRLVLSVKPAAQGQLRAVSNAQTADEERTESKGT

Structure (SMILES)	inhibition at 3 µM [1] [%]	IC50 [1] [nM]	IC50 [2] [nM]
COc1cc(-n2cnc3cc(-c4ccc(Cl)cc4)sc3c2=O)ccc1OCCN1CC[C@H](O)C1 [Comparison Example 1]	62	2000	–
COc1cc(-n2cnc3cc(-c4ccc(Cl)cc4)sc3c2=O)ccc1OCCN1CC[C@@H](O)C1 [Comparison Example 2]	90	–	–
COc1cc(-n2cnc3cc(-c4ccc(Cl)cc4)sc3c2=O)ccc1OCCCN1CC[C@@H](O)C1 [Comparison Example 3]	84	–	–
COc1cc(-n2cnc3cc(-c4ccc(Cl)cc4)sc3c2=O)ccc1N1CC[C@@H](O)C1 [Example 1, 6-(4-chlorophenyl)-3-{4-[(3R)-3-hydroxypyrrolidin-1-yl]-3-methoxyphenyl}thieno[3,2-d]pyrimidin-4(3H)-one]	–	–	2.51
COc1cc(-n2cnc3cc(-c4ccc(Cl)cc4)sc3c2=O)ccc1N1CC[C@H](O)C1 [Example 4, 6-(4-chlorophenyl)-3-{4-[(3S)-3-hydroxypyrrolidin-1-yl]-3-methoxyphenyl}thieno[3,2-d]pyrimidin-4(3H)-one]	–	–	2
